According to publication PMC7400577 (Scientific Reports, 2020):
Substitutions are numbered along the chain they refer to. Like-named read-outs stand apart in the source and are kept apart here.

How the values were obtained:
hGAT1 = target: T1, hGAT1 (Homo sapiens, UniProt P30531); test: [3H]GABA uptake inhibition at hGAT1 stably expressed in CHO Flp-In cells; assay type: cell-based; settings: 30 nM [3H]GABA, 3 min, CHO Flp-In cells stably expressing hGAT1; read-out: IC50 hGAT1
T1 construct: expressed in transfected cells
Description: CHO Flp-In and tsA201 cells were cultured at 37 °C in a humidified atmosphere of […] and 5% CO2. As previously described[38],[63], CHO Flp-In cells stably expressing the hGATs were cultured in Ham’s F12 Nutrient Mix supplemented with 10% FBS, 1% P/S and plasmocin (5 µg/mL) under the selection pressure of hygromycin B (200 µg/mL). DMEM with GlutaMAX-I supplemented with 10% FBS and 1% P/S was used as growth medium for the tsA201 cells, which were transfected with DNA constructs using PolyFect according to the manufacturer’s specifications (Qiagen, West Sussex, UK), but with half of the recommended reagent volumes.
Uptake assays were performed in PDL-coated white 96-well polystyrene cell culture microplates (PerkinElmer, Boston, MA, USA) as previously described[38],[63]. […] Assay buffer was HBSS supplemented with 20 mM HEPES, 1 mM CaCl2 and 1 mM MgCl2, pH 7.4. […] After termination, scintillation liquid (MicroScint-20, PerkinElmer) was added and the radioactivity measured in a TopCount NXT Microplate Scintillation Counter (PerkinElmer).
Data analysis and statistical evaluation were performed in GraphPad Prism 7.02 (GraphPad Software, San Diego, CA, USA). Concentration-uptake inhibition curves, generated from the radioligand-based uptake assays, were fitted by non-linear regression, using the equation for sigmoidal concentration–response with variable slope: Y = Bottom + (Top–Bottom)/(1 + 10^((logIC50 − X) × HillSlope)), where Y is the response, X is the logarithm of the concentration, Top and Bottom are the plateaus in same units as Y, logIC50 is the concentration giving a response halfway between Bottom and Top, and the HillSlope is the steepness of the curve. For the substrate concentration–response curves generated from the FMP assay, the same equation was used but with logEC50 instead for logIC50. Unless otherwise stated, data are presented as means ± S.E.M. of at least three independent pooled experiments performed in triplicates.

hGAT3 L314Q = target: T2, hGAT3 L314Q (Homo sapiens, UniProt P48066, L314Q); test: [3H]GABA uptake inhibition at hGAT3 L314Q transiently expressed in tsA201 cells; assay type: cell-based; settings: 30 nM [3H]GABA, transient expression
T2 construct: expressed in transfected cells; host or cells: tsA201 cells, transient (PolyFect), pcDNA5/FRT vector
T2 sequence (P48066 1-632 L314Q): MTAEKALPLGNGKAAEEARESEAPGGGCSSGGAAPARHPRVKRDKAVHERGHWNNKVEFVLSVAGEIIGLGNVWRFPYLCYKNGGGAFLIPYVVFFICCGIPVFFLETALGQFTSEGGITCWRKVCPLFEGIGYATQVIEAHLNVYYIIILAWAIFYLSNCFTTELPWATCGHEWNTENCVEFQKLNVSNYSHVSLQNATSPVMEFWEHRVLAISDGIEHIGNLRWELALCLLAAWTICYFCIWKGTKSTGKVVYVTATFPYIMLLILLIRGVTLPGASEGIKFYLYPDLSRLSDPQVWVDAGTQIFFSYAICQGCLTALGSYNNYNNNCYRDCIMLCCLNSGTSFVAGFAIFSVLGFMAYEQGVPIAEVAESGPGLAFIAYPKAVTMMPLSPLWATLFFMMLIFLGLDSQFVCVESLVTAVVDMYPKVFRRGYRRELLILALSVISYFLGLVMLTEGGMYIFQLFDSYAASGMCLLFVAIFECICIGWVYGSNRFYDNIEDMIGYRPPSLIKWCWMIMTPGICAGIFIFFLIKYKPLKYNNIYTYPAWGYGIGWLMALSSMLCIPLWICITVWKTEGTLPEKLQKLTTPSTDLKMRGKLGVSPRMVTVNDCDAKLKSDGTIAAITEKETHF

hBGT1 E52A = target: T3, hBGT1 E52A (Homo sapiens, UniProt P48065, E52A); test: cell-based; settings: 30 nM [3H]GABA, tsA201 cells, transient expression
T3 sequence (P48065 1-614 E52A): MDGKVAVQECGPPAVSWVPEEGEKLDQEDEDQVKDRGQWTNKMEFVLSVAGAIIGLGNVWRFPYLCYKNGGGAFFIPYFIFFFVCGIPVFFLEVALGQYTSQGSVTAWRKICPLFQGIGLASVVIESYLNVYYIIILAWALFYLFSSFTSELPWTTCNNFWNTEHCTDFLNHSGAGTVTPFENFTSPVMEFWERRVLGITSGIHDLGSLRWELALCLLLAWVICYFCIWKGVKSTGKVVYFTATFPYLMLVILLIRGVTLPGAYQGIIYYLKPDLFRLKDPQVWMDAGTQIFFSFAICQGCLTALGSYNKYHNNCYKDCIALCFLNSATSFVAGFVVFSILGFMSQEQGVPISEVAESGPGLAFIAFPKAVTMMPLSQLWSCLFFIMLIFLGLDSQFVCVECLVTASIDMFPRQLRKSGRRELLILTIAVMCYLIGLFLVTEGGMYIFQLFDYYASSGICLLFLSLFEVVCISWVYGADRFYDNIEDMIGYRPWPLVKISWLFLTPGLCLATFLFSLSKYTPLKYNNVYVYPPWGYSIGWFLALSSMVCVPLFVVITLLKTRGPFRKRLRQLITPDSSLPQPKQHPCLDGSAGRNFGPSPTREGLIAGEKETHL

hBGT1 E52Y = target: T4, hBGT1 E52Y (Homo sapiens, UniProt P48065, E52Y); test: cell-based; settings: 30 nM [3H]GABA, tsA201 cells, transient expression
T4 sequence (P48065 1-614 E52Y): T3 sequence (P48065 1-614 E52A) with A52Y

[1] = read-out: pIC50 ± S.E.M. GAT3 L314Q (converted)

T1 sequence (P30531 whole entry): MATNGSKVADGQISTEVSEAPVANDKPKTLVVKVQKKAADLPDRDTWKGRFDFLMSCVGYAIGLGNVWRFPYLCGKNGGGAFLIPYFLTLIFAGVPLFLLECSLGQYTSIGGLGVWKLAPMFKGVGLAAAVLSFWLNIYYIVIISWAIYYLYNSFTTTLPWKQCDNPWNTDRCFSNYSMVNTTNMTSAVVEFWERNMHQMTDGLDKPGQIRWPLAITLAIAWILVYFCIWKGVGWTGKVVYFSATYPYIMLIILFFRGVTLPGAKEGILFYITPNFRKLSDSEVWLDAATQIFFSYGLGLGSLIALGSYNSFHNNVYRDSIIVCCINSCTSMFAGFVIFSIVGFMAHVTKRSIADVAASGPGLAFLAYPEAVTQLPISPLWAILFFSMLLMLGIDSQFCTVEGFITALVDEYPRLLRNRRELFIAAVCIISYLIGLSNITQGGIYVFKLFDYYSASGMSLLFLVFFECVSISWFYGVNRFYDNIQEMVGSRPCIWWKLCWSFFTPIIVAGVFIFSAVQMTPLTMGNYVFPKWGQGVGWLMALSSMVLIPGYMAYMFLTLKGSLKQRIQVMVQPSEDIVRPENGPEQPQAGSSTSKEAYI

Compound | IC50 (hGAT1) [µM] | IC50 (hGAT3 L314Q; read-out: IC50 GAT3 L314Q) [µM] | IC50 (hBGT1 E52A; pIC50 ± S.E.M. BGT1 E52A) [µM] | IC50 (hBGT1 E52Y; IC50 BGT1 E52Y) [µM] | IC50 (hGAT3 L314Q; [1]) [µM] | IC50 (hBGT1 E52A; IC50 BGT1 E52A) [µM] | IC50 (hBGT1 E52Y; pIC50 ± S.E.M. BGT1 E52Y) [µM]
C[C@@H]1N=C(N)NC[C@@H]1C(=O)O (single isomer, unassigned) [l-15a] | > 1000 | > 1000 | 37.2 | > 1000 |  |  | 
NC1=NCC(C(=O)O)CN1 (stereo not shown) [ATPCA, 2-amino-1,4,5,6-tetrahydropyrimidine-5-carboxylic acid, reference compound] | > 1000 | 66 |  | 5.8 | 58.9 | 4.4 | 
NC1=NCC(C(=O)O)CC1 (stereo not shown) [compound 2, 6-amino-2,3,4,5-tetrahydropyridine-3-carboxylic acid, reference compound] | 216 | 695 | 30.2 | 44 |  | 31 | 37.2
CCN1CC(C(=O)O)CN=C1N.Cl (stereo not shown) [compound 3] | > 1000 | > 1000 | 72.4 | 152 |  | 74 | 
Cl.NC1=NCC(C(=O)O)CN1Cc1ccccc1 (stereo not shown) [compound 4] | > 1000 | 500 | 87.1 | 54 | 490 | 90 | 
NC1=NC=C(C(=O)O)CN1.O=C(O)C(F)(F)F [compound 11] | > 1000 | > 1000 | 240 | > 1000 |  | 247 | 
